Assay results from US4089965A, “Thiazolylphenylguanidines as antirhinovirus agents” (American Cyanamid Company, priority 1977, dated 1978).
Converted amounts (≈) assume the structure as drawn. “And” between values parts separate entries of the source, which are not always exact repeats. Equal values may be shown once.

Assays:
[1] = test system: Rhinovirus Serotype 2; test: Plaque assay, minimal inhibitory concentration; assay type: cell-based; details: Enterovirus, inhibiting virus plaque formation by 50%
[2] = test system: Rhinovirus Serotype 12; test: Plaque assay, minimal inhibitory concentration; assay type: cell-based; details: Enterovirus; HeLa Cells; inhibiting virus plaque formation by 50%
[3] = test system: Rhinovirus Serotype 14; test: Plaque assay, minimal inhibitory concentration; assay type: cell-based; details: Enterovirus; HeLa Cells; inhibiting virus plaque formation by 50%
[4] = test system: Rhinovirus Serotype 20; test: Plaque assay, minimal inhibitory concentration; assay type: cell-based; details: Enterovirus; HeLa Cells; inhibiting virus plaque formation by 50%
[5] = test system: Rhinovirus Serotype 32; test: Plaque assay, minimal inhibitory concentration; assay type: cell-based; details: Enterovirus; HeLa Cells; inhibiting virus plaque formation by 50%
[6] = test system: Rhinovirus Serotype 39; test: Plaque assay, minimal inhibitory concentration; assay type: cell-based; details: Enterovirus; HeLa Cells; inhibiting virus plaque formation by 50%
[7] = test system: Rhinovirus Serotype 50; test: Plaque assay, minimal inhibitory concentration; assay type: cell-based; details: Enterovirus; HeLa Cells; inhibiting virus plaque formation by 50%
[8] = test system: Coxsackievirus A-15; test: Plaque assay, minimal inhibitory concentration; assay type: cell-based; details: HeLa Cells, inhibiting virus plaque formation by 50%
[9] = test system: Coxsackievirus A-21; test: Plaque assay, minimal inhibitory concentration; assay type: cell-based; details: HeLa Cells, inhibiting virus plaque formation by 50%
[10] = test system: rhinovirus 32; test: Clinical challenge study in volunteers, clinical symptoms and infection; assay type: in vivo, human; details: intranasal
[11] = test system: rhinoviruses and other picornaviruses, including coxsackie and poliovirus; assay type: cell-based
[12] = test system: rhinoviruses; test: Activity in three human epithelial cell lines; assay type: cell-based, rhinovirus; details: Hela, L-132 and Detroit-6
[13] = test system: Rhinovirus Type 11; test: Viral sensitivity, filter disc method; assay type: cell-based; details: strain 1CV15; about 50 mcg per disc, HeLa
Description: (§1) In the test for viral sensitivity, by the filter disc method, 5 mg. of 1-(4-phenyl-2-thiazolyl)-3-phenylguanidine was dissolved in 1-2 drops of dimethylsulfoxide and 2.5 ml. of saline. Filter paper discs, when saturated with the solution, absorbed about 50 mcg. of the compound.
(§2) Sensitivity tests were performed by a modification of the method of Herrmann, et al., Proc. Soc. Exp. Biol. & Med., 103, 625 (1960). HeLa monolayers in 150 mm plastic dishes were infected with 1.0 ml. of rhinovirus suspension known to produce destruction of 80-90% of the cells in 4 to 5 days. Following viral adsorption, the cells were overlayed with 30 ml. of Eagle's minimum essential medium containing Noble agar at 0.5%, bovine fetal serum at 2.0%, diethylaminoethyl dextran at 100 mcg/ml. and magnesium chloride at 3 millimoles. Filter discs (1/4 inch Carl Schleicher and Schuell Co., No. 740E), containing about 50 mcg. of 1-(4-phenyl-2-thiazolyl)-3-phenylguanidine, were placed on the solidified surface and the culture plates incubated at 33° C. After 4 to 5 days, the overlay medium was decanted and the cells stained with 0.1% crystal violet in 20% ethanol. A zone of 10 mm or more in which at least two-thirds of the cells were protected from viral cytopathic effects, indicates antiviral activity. The following Table III lists 35 rhinovirus serotypes which were inhibited by this compound.

[14] = test system: Rhinovirus Type 12; test: Viral sensitivity, filter disc method; assay type: cell-based; details: strain 181CV16; about 50 mcg per disc, HeLa
Description: as §1, §2

[15] = test system: Rhinovirus Type 14; test: Viral sensitivity, filter disc method; assay type: cell-based; details: strain 1059; about 50 mcg per disc, HeLa
Description: as §1, §2

[16] = test system: Rhinovirus Type 15; test: Viral sensitivity, filter disc method; assay type: cell-based; details: strain 1734; about 50 mcg per disc, HeLa
Description: as §1, §2

[17] = test system: Rhinovirus Type 19; test: Viral sensitivity, filter disc method; assay type: cell-based; details: strain 6072CV18; about 50 mcg per disc, HeLa
Description: as §1, §2

[18] = test system: Rhinovirus Type 1B; test: Viral sensitivity, filter disc method; assay type: cell-based; details: strain B632; about 50 mcg per disc, HeLa, 33° C., 4 to 5 days
Description: as §1, §2

[19] = test system: Rhinovirus Type 21; test: Viral sensitivity, filter disc method; assay type: cell-based; details: strain 47CV21; about 50 mcg per disc, HeLa
Description: as §1, §2

[20] = test system: Rhinovirus Type 23; test: Viral sensitivity, filter disc method; assay type: cell-based; details: strain 5124CV24; about 50 mcg per disc, HeLa
Description: as §1, §2

[21] = test system: Rhinovirus Type 28; test: Viral sensitivity, filter disc method; assay type: cell-based; details: strain 6101CV29; about 50 mcg per disc, HeLa
Description: as §1, §2

[22] = test system: Rhinovirus Type 29; test: Viral sensitivity, filter disc method; assay type: cell-based; details: strain 179E; about 50 mcg per disc, HeLa
Description: as §1, §2

[23] = test system: Rhinovirus Type 30; test: Viral sensitivity, filter disc method; assay type: cell-based; details: strain 106F; about 50 mcg per disc, HeLa
Description: as §1, §2

[24] = test system: Rhinovirus Type 31; test: Viral sensitivity, filter disc method; assay type: cell-based; details: strain 140F; about 50 mcg per disc, HeLa
Description: as §1, §2

[25] = test system: Rhinovirus Type 45; test: Viral sensitivity, filter disc method; assay type: cell-based; details: strain Baylor 1; about 50 mcg per disc, HeLa
Description: as §1, §2

[26] = test system: Rhinovirus Type 4; test: Viral sensitivity, filter disc method; assay type: cell-based; details: strain 16/60; about 50 mcg per disc, HeLa
Description: as §1, §2

[27] = test system: Rhinovirus Type 50; test: Viral sensitivity, filter disc method; assay type: cell-based; details: strain A2 No. 58; about 50 mcg per disc, HeLa
Description: as §1, §2

[28] = test system: Rhinovirus Type 51; test: Viral sensitivity, filter disc method; assay type: cell-based; details: strain 605CV45; about 50 mcg per disc, HeLa
Description: as §1, §2

[29] = test system: Rhinovirus Type 52; test: Viral sensitivity, filter disc method; assay type: cell-based; details: strain 515-CV34; about 50 mcg per disc, HeLa
Description: as §1, §2

[30] = test system: Rhinovirus Type 5; test: Viral sensitivity, filter disc method; assay type: cell-based; details: strain Norman; about 50 mcg per disc, HeLa
Description: as §1, §2

[31] = test system: Rhinovirus Type 9; test: Viral sensitivity, filter disc method; assay type: cell-based; details: strain 211CV13; about 50 mcg per disc, HeLa
Description: as §1, §2

[32] = test system: Rhinovirus strain 5; test: Protection of tissue from cytopathic effects (plaque inhibition, filter paper disc or agar overlay); details: 33°, 3 to 5 days
[33] = test system: Rhinovirus strain 23; test: as above; details: 33°, 3 to 5 days

SMILES: N=C(Nc1ccccc1)Nc1nc(-c2ccccc2)cs1 [1-(4-phenyl-2-thiazolyl)-3-phenylguanidine]
- IC50 ([1]; L132, L-132 Cells): 0.4 to 0.8 µg/mL (≈ 1.36 to 2.72 µM)
- IC50 ([1]; Detroit-6 Cells): 0.4 µg/mL (≈ 1.36 µM)
- IC50 ([1]; HeLa Cells): 0.4 to 0.8 µg/mL (≈ 1.36 to 2.72 µM)
- IC50 [2]: 0.2 to 0.4 µg/mL (≈ 0.679 to 1.36 µM)
- IC50 [3]: 0.8 to 1.6 µg/mL (≈ 2.72 to 5.44 µM)
- IC50 [4]: 0.4 µg/mL (≈ 1.36 µM)
- IC50 [5]: 0.4 µg/mL (≈ 1.36 µM)
- IC50 [6]: 0.4 µg/mL (≈ 1.36 µM)
- IC50 [7]: 0.2 to 0.4 µg/mL (≈ 0.679 to 1.36 µM)
- IC50 [8]: 1.6 to 3.1 µg/mL (≈ 5.44 to 10.5 µM)
- IC50 [9]: 1.6 to 3.1 µg/mL (≈ 5.44 to 10.5 µM)
- Clinical Symptom Scores ([10]; individual subjects on medication (No. 3, 4, 6, 7, 9, 10, 13, 14, 17, 20, in order of lines), signs and symptoms scaled 0 not present to +3 severe): 0 and 11 and 2 and 4 and 3 and 5 and 6 and 1
- protection of humans from rhinovirus type 32 infection [10]: effective in protecting humans from rhinovirus type 32 infection
- volunteers who did not develop rhinovirus infection from challenge ([10]; rhinovirus type 32 challenge, placebo 4 of 10): 9 of 10
- inhibition of virus growth ([11]; by inhibitory effects on virus plaque formation and virus yield): concentration-related inhibition
- activity against rhinoviruses and other picornaviruses ([11]; human cell cultures): active against a broad spectrum of rhinoviruses and other picornaviruses
- activity against rhinoviruses in three human epithelial cell lines [12]: equally active
- inhibition of rhinovirus serotype (zone of 10 mm or more) [13]: inhibited
- inhibition of rhinovirus serotype (zone of 10 mm or more) [14]: inhibited
- inhibition of rhinovirus serotype (zone of 10 mm or more) [15]: inhibited
- inhibition of rhinovirus serotype (zone of 10 mm or more) [16]: inhibited
- inhibition of rhinovirus serotype (zone of 10 mm or more) [17]: inhibited
- inhibition of rhinovirus serotype (zone of 10 mm or more) [18]: inhibited
- inhibition of rhinovirus serotype (zone of 10 mm or more) [19]: inhibited
- inhibition of rhinovirus serotype (zone of 10 mm or more) [20]: inhibited
- inhibition of rhinovirus serotype (zone of 10 mm or more) [21]: inhibited
- inhibition of rhinovirus serotype (zone of 10 mm or more) [22]: inhibited
- inhibition of rhinovirus serotype (zone of 10 mm or more) [23]: inhibited
- inhibition of rhinovirus serotype (zone of 10 mm or more) [24]: inhibited
- inhibition of rhinovirus serotype (zone of 10 mm or more) [25]: inhibited
- inhibition of rhinovirus serotype (zone of 10 mm or more) [26]: inhibited
- inhibition of rhinovirus serotype (zone of 10 mm or more) [27]: inhibited
- inhibition of rhinovirus serotype (zone of 10 mm or more) [28]: inhibited
- inhibition of rhinovirus serotype (zone of 10 mm or more) [29]: inhibited
- inhibition of rhinovirus serotype (zone of 10 mm or more) [30]: inhibited
- inhibition of rhinovirus serotype (zone of 10 mm or more) [31]: inhibited
- Protection of tissue from destruction by virus [32]: +
- Protection of tissue from destruction by virus [33]: +
